Reference: ChEMBL document CHEMBL1201862, “PubChem BioAssay data set” (2004)
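In this assay, cells in 96-well plates receive the compound at five concentrations for 48 hours. Endpoints are linearly interpolated between the surrounding concentrations. GI50 = concentration required for 50% inhibition of growth.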 Active and inactive are the calls of the source. No stated cut-off is given here; in the data, active = GI50 up to about 1.1 µM and inactive = higher.

Key:
Assay in all cases: inhibition of tumour cell growth, NCI panel, 48 h
[1] = test system: SNB-19
[2] = test system: RXF 393
[3] = test system: COLO 205
[4] = test system: KM12
[5] = test system: MOLT-4
[6] = test system: BT-549
[7] = test system: MDA-MB-435
[8] = test system: LOX IMVI
[9] = test system: Malme-3M
[10] = test system: SF-539
[11] = test system: OVCAR-3
[12] = test system: NCI-H226
[13] = test system: M14
[14] = test system: ACHN
[15] = test system: HT-29
[16] = test system: SN12C
[17] = test system: UACC-62
[18] = test system: HCC 2998
[19] = test system: SF-268
[20] = test system: SK-OV-3
[21] = test system: MDA-MB-231
[22] = test system: HOP-62
[23] = test system: TK-10
[24] = test system: T47D
[25] = test system: SK-MEL-5
[26] = test system: SNB-75
[27] = test system: HOP-92
[28] = test system: K562
[29] = test system: UACC-257
[30] = test system: MDA-N
[31] = test system: HCT-15
[32] = test system: IGROV-1
[33] = test system: OVCAR-5
[34] = test system: NCI-H522
[35] = test system: MCF7
[36] = test system: A498
[37] = test system: UO-31
[38] = test system: OVCAR-8
[39] = test system: SF-295
[40] = test system: DU-145
[41] = test system: SK-MEL-28
[42] = test system: PC-3
[43] = test system: 786-0
[44] = test system: Hs-578T
[45] = test system: EKVX
[46] = test system: A549
[47] = test system: NCI-H460
[48] = test system: NCI/ADR-RES
[49] = test system: CCRF-CEM
[50] = test system: SW-620
[51] = test system: U-251
[52] = test system: NCI-H23
[53] = test system: OVCAR-4
[54] = test system: HL-60
[55] = test system: CAKI-1
[56] = test system: HCT-116
[57] = test system: SK-MEL-2
[58] = test system: RPMI-8226

How did the GI50 [1] turn out when `C=CCc1oc(C)nc1CCCC` was run?
Its GI50 is 49.3 µM (inactive).

What about the GI50 [2] of the same compound?
Its GI50 is > 100 µM (inactive).

And the GI50 [3]?
Its GI50 is > 100 µM (inactive).

And the GI50 [4]?
Its GI50 is > 100 µM (inactive).

What about the GI50 [5] of the same compound?
The GI50 was > 100 µM (inactive).

What about the GI50 [6] of the same compound?
Its GI50 is > 100 µM (inactive).

What about the GI50 [7] of the same compound?
The GI50 was > 100 µM (inactive).

And the GI50 [8]?
Its GI50 is > 100 µM (inactive).

What about the GI50 [9] of the same compound?
Its GI50 is > 100 µM (inactive).

And the GI50 [10]?
Its GI50 is > 100 µM (inactive).

And the GI50 [11]?
The GI50 was > 100 µM (inactive).

And the GI50 [12]?
Its GI50 is > 100 µM (inactive).

And the GI50 [13]?
Its GI50 is > 100 µM (inactive).

And the GI50 [14]?
Its GI50 is > 100 µM (inactive).

And the GI50 [15]?
The GI50 was > 100 µM (inactive).

And the GI50 [16]?
Its GI50 is > 100 µM (inactive).

And the GI50 [17]?
Its GI50 is > 100 µM (inactive).

What about the GI50 [18] of the same compound?
Its GI50 is > 100 µM (inactive).

And the GI50 [19]?
Its GI50 is > 100 µM (inactive).

And the GI50 [20]?
Its GI50 is > 100 µM (inactive).

And the GI50 [21]?
Its GI50 is > 100 µM (inactive).

What about the GI50 [22] of the same compound?
Its GI50 is > 100 µM (inactive).

And the GI50 [23]?
Its GI50 is > 100 µM (inactive).

And the GI50 [24]?
Its GI50 is > 100 µM (inactive).

What about the GI50 [25] of the same compound?
Its GI50 is > 100 µM (inactive).

And the GI50 [26]?
The GI50 was > 100 µM (inactive).

What about the GI50 [27] of the same compound?
The GI50 was > 100 µM (inactive).

And the GI50 [28]?
Its GI50 is > 100 µM (inactive).

And the GI50 [29]?
The GI50 was > 100 µM (inactive).

What about the GI50 [30] of the same compound?
Its GI50 is > 100 µM (inactive).

What about the GI50 [31] of the same compound?
The GI50 was > 100 µM.

And the GI50 [32]?
The GI50 was > 100 µM (inactive).

What about the GI50 [33] of the same compound?
Its GI50 is > 100 µM (inactive).

And the GI50 [34]?
The GI50 was > 100 µM (inactive).

And the GI50 [35]?
Its GI50 is > 100 µM (inactive).

And the GI50 [36]?
The GI50 was > 100 µM (inactive).

What about the GI50 [37] of the same compound?
The GI50 was > 100 µM (inactive).

And the GI50 [38]?
Its GI50 is > 100 µM (inactive).

And the GI50 [39]?
Its GI50 is > 100 µM (inactive).

And the GI50 [40]?
Its GI50 is > 100 µM (inactive).

What about the GI50 [41] of the same compound?
The GI50 was > 100 µM (inactive).

What about the GI50 [42] of the same compound?
The GI50 was > 100 µM (inactive).

What about the GI50 [43] of the same compound?
Its GI50 is > 100 µM (inactive).

What about the GI50 [44] of the same compound?
The GI50 was > 100 µM (inactive).

And the GI50 [45]?
Its GI50 is > 100 µM (inactive).

And the GI50 [46]?
The GI50 was > 100 µM (inactive).

And the GI50 [47]?
The GI50 was > 100 µM (inactive).

And the GI50 [48]?
Its GI50 is > 100 µM (inactive).

And the GI50 [49]?
The GI50 was > 100 µM (inactive).

What about the GI50 [50] of the same compound?
Its GI50 is > 100 µM (inactive).

What about the GI50 [51] of the same compound?
Its GI50 is > 100 µM (inactive).

What about the GI50 [52] of the same compound?
Its GI50 is > 100 µM (inactive).

What about the GI50 [53] of the same compound?
The GI50 was > 100 µM (inactive).

What about the GI50 [54] of the same compound?
The GI50 was > 100 µM (inactive).

And the GI50 [55]?
The GI50 was > 100 µM (inactive).

What about the GI50 [56] of the same compound?
The GI50 was > 100 µM (inactive).

Which results are given for `COc1cc(/N=C(\N)N=C(N)N)c2ncccc2c1`?
GI50 [1]: 50.4 µM (inactive); GI50 [2]: > 100 µM (inactive); GI50 [3]: 74.8 µM (inactive); GI50 [4]: 45.3 µM (inactive); GI50 [6]: 78.5 µM (inactive); GI50 [7]: > 100 µM (inactive); GI50 [8]: > 100 µM (inactive); GI50 [9]: 44.7 µM (inactive); GI50 [10]: 46.8 µM (inactive); GI50 [11]: > 100 µM (inactive); GI50 [12]: 18.7 µM (inactive); GI50 [13]: > 100 µM (inactive); GI50 [14]: > 100 µM (inactive); GI50 [15]: > 100 µM (inactive); GI50 [16]: 62.1 µM (inactive); GI50 [17]: > 100 µM (inactive); GI50 [18]: > 100 µM (inactive); GI50 [19]: 98.2 µM (inactive); GI50 [20]: > 100 µM (inactive); GI50 [21]: > 100 µM (inactive); GI50 [22]: > 100 µM (inactive); GI50 [23]: > 100 µM (inactive); GI50 [24]: 29.9 µM (inactive); GI50 [25]: 39.9 µM (inactive); GI50 [26]: 60.4 µM (inactive); GI50 [27]: 67 µM (inactive); GI50 [29]: > 100 µM (inactive); GI50 [30]: > 100 µM (inactive); GI50 [57]: > 100 µM (inactive); GI50 [31]: > 100 µM; GI50 [32]: > 100 µM (inactive); GI50 [33]: > 100 µM (inactive); GI50 [34]: 72.8 µM (inactive); GI50 [35]: > 100 µM (inactive); GI50 [36]: > 100 µM (inactive); GI50 [37]: > 100 µM (inactive); GI50 [38]: > 100 µM (inactive); GI50 [39]: > 100 µM (inactive); GI50 [40]: > 100 µM (inactive); GI50 [41]: > 100 µM (inactive); GI50 [42]: > 100 µM (inactive); GI50 [43]: 64.6 µM (inactive); GI50 [44]: 98.4 µM (inactive); GI50 [45]: > 100 µM (inactive); GI50 [46]: > 100 µM (inactive); GI50 [47]: > 100 µM (inactive); GI50 [48]: > 100 µM (inactive); GI50 [50]: > 100 µM (inactive); GI50 [51]: 38 µM (inactive); GI50 [52]: 80.7 µM (inactive); GI50 [53]: > 100 µM (inactive); GI50 [55]: > 100 µM (inactive); GI50 [56]: > 100 µM (inactive)

What does the source list for `O=S(=O)(O)c1ccc(/N=N/c2ccc(/N=N/c3c(O)c(S(=O)(=O)O)cc4cc(S(=O)(=O)O)ccc34)cc2)cc1`?
GI50 [1]: > 100 µM (inactive); GI50 [2]: > 100 µM (inactive); GI50 [3]: > 100 µM (inactive); GI50 [4]: > 100 µM (inactive); GI50 [5]: > 100 µM (inactive); GI50 [6]: > 100 µM (inactive); GI50 [58]: > 100 µM (inactive); GI50 [7]: > 100 µM (inactive); GI50 [9]: > 100 µM (inactive); GI50 [10]: > 100 µM (inactive); GI50 [11]: > 100 µM (inactive); GI50 [12]: > 100 µM (inactive); GI50 [13]: > 100 µM (inactive); GI50 [14]: > 100 µM (inactive); GI50 [15]: > 100 µM (inactive); GI50 [16]: > 100 µM (inactive); GI50 [17]: > 100 µM (inactive); GI50 [18]: > 100 µM (inactive); GI50 [19]: > 100 µM (inactive); GI50 [20]: > 100 µM (inactive); GI50 [21]: > 100 µM (inactive); GI50 [22]: > 100 µM (inactive); GI50 [23]: > 100 µM (inactive); GI50 [24]: > 100 µM (inactive); GI50 [25]: > 100 µM (inactive); GI50 [27]: > 100 µM (inactive); GI50 [28]: > 100 µM (inactive); GI50 [29]: > 100 µM (inactive); GI50 [30]: > 100 µM (inactive); GI50 [57]: > 100 µM (inactive); GI50 [31]: > 100 µM; GI50 [32]: > 100 µM (inactive); GI50 [33]: > 100 µM (inactive); GI50 [34]: > 100 µM (inactive); GI50 [35]: > 100 µM (inactive); GI50 [37]: > 100 µM (inactive); GI50 [38]: > 100 µM (inactive); GI50 [39]: > 100 µM (inactive); GI50 [40]: > 100 µM (inactive); GI50 [41]: > 100 µM (inactive); GI50 [42]: > 100 µM (inactive); GI50 [43]: > 100 µM (inactive); GI50 [44]: > 100 µM (inactive); GI50 [45]: > 100 µM (inactive); GI50 [46]: > 100 µM (inactive); GI50 [47]: > 100 µM (inactive); GI50 [48]: > 100 µM (inactive); GI50 [49]: > 100 µM (inactive); GI50 [50]: > 100 µM (inactive); GI50 [51]: > 100 µM (inactive); GI50 [52]: > 100 µM (inactive); GI50 [53]: > 100 µM (inactive); GI50 [54]: > 100 µM (inactive); GI50 [55]: > 100 µM (inactive); GI50 [56]: > 100 µM (inactive)
